From patent US7812162B2, “Enantiomers of 2′-fluoralkyl-6-nitroquipazine as serotonin transporter positron emission tomography imaging agents and antidepressant therapeutics” (The University of Montana, priority 2006, dated 2010)
Where two headings read alike, the source gives them in different places.

Columns and labels:
[1] = target: T1, rat frontal cortical SERT, rSERT (Rattus norvegicus, UniProt P31652); test: Competition binding assay, rat frontal cortical SERT, [3H]Paroxetine; conditions: Competitive binding, rat brain cortex homogenate, 20° C., n = 3, mean±s.e.m.
T1 construct: rat frontal cortical SERT, rSERT; from tissue; host or cells: rat frontal cortex
Protocol: The compounds of the invention are potent (sub-nanomolar concentration) pharmacological inhibitor binding ligands of the serotonin transporter. Examples of the in vitro inhibition competitive pharmacological binding SERT potencies are shown in Table 3, where the binding constant Ki values are reported as mean±s.e.m., n=3 or greater. The binding constants were determined using an established competition assay (rat frontal cortical SERT, rSERT; [^3H]Paroxetine, 3 h incubation time at 20° C., nonspecific binding determined as the difference in the absence and presence of saturating levels of non-radioactive 6-nitroquipazine) [Gerdes 2000] which is a modified method of Habert [Habert 1985]. […] The ligands of the invention are considered to have antidepressant qualities since they effectively compete with the radiolabelled form of the known antidepressant Paroxetine ([^3H]Paroxetine) at the serotonin transporter [Tatsumi 1997, Hyttel 1994].

[2] = target: T2, human serotonin transporter (hSERT) (Homo sapiens, UniProt P31645); test: Inhibition of [3H]5-HT uptake into HEK-293 cells transfected with hSERT; type: cell-based; conditions: hSERT HEK-293 cells, 20° C.
T2 construct: expressed in transfected cells; host or cells: HEK-293

SERT [3] = target: T3, SERT (Rattus norvegicus, UniProt P31652); conditions: Rat brain, [3H]paroxetine; SERT competitive binding; cited from earlier work
SERT [4] = target: T3, SERT; conditions: Rat brain, [3H]citalopram; SERT competitive binding; cited from earlier work

T2 sequence (P31645 whole entry): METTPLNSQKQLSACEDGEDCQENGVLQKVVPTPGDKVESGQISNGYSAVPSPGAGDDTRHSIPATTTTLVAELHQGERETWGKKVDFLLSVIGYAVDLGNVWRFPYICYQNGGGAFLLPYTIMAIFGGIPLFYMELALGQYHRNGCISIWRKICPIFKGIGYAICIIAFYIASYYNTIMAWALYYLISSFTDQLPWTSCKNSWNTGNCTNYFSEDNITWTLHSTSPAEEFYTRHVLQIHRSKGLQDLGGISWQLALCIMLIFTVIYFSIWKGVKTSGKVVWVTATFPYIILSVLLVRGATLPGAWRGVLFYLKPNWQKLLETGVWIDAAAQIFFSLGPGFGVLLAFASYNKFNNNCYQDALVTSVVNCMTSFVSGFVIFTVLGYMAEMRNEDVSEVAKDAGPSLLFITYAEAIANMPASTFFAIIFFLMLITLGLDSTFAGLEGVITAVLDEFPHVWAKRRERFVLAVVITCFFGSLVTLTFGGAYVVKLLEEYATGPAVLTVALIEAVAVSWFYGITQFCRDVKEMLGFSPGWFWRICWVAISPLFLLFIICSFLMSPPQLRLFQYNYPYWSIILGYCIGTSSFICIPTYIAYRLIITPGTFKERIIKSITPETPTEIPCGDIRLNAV
T3 sequence (P31652 whole entry): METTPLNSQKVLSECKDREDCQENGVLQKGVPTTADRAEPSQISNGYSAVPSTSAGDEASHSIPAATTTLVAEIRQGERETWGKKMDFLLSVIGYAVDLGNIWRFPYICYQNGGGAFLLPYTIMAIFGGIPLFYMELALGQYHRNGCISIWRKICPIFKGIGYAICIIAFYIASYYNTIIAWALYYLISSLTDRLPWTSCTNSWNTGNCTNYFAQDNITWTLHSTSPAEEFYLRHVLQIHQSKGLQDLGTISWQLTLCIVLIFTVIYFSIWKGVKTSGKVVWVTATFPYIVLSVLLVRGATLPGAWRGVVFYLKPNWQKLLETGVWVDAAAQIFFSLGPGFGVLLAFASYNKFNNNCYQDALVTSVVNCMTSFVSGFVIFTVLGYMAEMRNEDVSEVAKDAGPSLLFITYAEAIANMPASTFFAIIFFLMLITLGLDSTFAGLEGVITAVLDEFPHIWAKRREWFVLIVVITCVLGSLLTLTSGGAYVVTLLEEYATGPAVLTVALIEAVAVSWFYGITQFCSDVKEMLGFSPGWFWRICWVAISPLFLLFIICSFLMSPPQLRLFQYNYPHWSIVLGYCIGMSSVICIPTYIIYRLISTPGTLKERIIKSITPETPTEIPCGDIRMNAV
T1 sequence (P31652 whole entry): as above

SMILES	Ki [1] [nM]	Ki (SERT [3]) [nM]	further results
COC[C@@H]1CNCCN1c1ccc2cc([N+](=O)[O-])ccc2n1 [Cpd 13S, (S)-(−)-2-[2-(Methoxymethyl)piperazin-1-yl]-6-nitroquinolin]	1.52 ± 0.1	–	Ki [2]: 1.66 nM
O=[N+]([O-])c1ccc2nc(N3CCNCC3)ccc2c1I [Cpd 6]	–	0.17	–
O=[N+]([O-])c1ccc2nc(N3CCNCC3CO)ccc2c1 (racemic) [Cpd 14]	0.68 ± 0.04	–	–
COC[C@H]1CNCCN1c1ccc2cc([N+](=O)[O-])ccc2n1 [Cpd 13R]	0.25 ± 0.03	–	Ki [2]: 0.15 nM
O=[N+]([O-])c1ccc2nc(N3CCNCC3)ccc2c1 [Cpd 5]	–	0.16	–
COCC1CNCCN1c1ccc2cc([N+](=O)[O-])ccc2n1 (racemic) [Cpd 13]	0.42 ± 0.01	–	Ki [2]: 0.47 nM
O=[N+]([O-])c1ccc2nc(N3CCNCC3)c(CCCF)cc2c1 [Cpd 10]	–	–	Ki (SERT [4]): 0.31 nM
O=[N+]([O-])c1ccc2nc(N3CCNCC3)ccc2c1F [Cpd 8]	–	0.25	–
O=[N+]([O-])c1ccc2nc(N3CCNC[C@H]3COCCCF)ccc2c1 [Cpd 2S]	1.56 ± 0.88	–	–
O=[N+]([O-])c1ccc2nc(N3CCNC[C@@H]3COCCCF)ccc2c1 [Cpd 2R]	0.25 ± 0.08	–	–
CC1CNCCN1c1ccc2cc([N+](=O)[O-])ccc2n1 (stereo not drawn) [Cpd 12]	–	0.08	–
O=[N+]([O-])c1ccc2nc(N3CCNCC3COCCCF)ccc2c1 (racemic) [Cpd 2, 2-[2-((3-Fluoropropoxy)methyl)piperazine-1-yl]-6-nitroquinoline]	0.28 ± 0.09	–	–
